The test system of the test is platelets. Nature of the test: Secretion of PN-2/βAPP and granule markers from platelets after activation by agonists. It counts as cell-based. As to conditions: for PN-2/βAPP percent secreted / ADP/ATP percent secreted / LA-PF4 percent secreted / LDH loss (percent), marker of platelet lysis: collagen 20 μg/ml or thrombin 1 U/ml, 10 minutes; for fraction of total platelet PN-2/βAPP secreted on activation: freshly washed platelets. As to the method:
Secretion of PN-2/βAPP from platelets after activation by the agonists collagen or thrombin was studied. Briefly, fresh platelets washed by albumin density gradient centrifugation and gel filtration were incubated for 30 minutes at 37° C. in the absence or presence of the combined metabolic inhibitors antimycin A (15 μg/ml), 2-deoxy-D-glucose (30 mM), and D-gluconic acid δ-lactone (10 mM). The platelets were then placed into a cuvette 37° C. water bath with stirring at 1,200 rpm, and collagen (20 μg/ml or .varies.-thrombin (1 U/ml) was added. After 10 minutes, the samples were centrifuged at 12,000 x g for 4 minutes and supernatants were collected. Aliquots were removed and quantitated for PN-2/βAPP by incubation with ^125 I-EGF BP and analysis of complex formation by SDS-PAGE and autoradiography as in Example 15. Autoradiograms were aligned with dried gels; ^125 I-EGF BP:PN-2/βAPP complexes were located, excised and quantitated in a […]. Aliquots were also quantitated for platelet markers as follows: total adenine nucleotide (ADP/ATP) secretion was measured by the method of Homsen et al., Anal. Biochem., 46:489 (1972); low affinity platelet factor 4 (LA-PF4) secretion was quantitated by the method of Rucinski et al., Blood, 53:47 (1979); and cytosolic lactate dehydrogenase (LDH) loss was assessed by the procedure of Wroblewski and Ladue, Proc. Soc. Exper. Biol. Med., 77:389 (1978), the disclosures of which are hereby incorporated by reference. Values represent the percent secreted. Percent secreted was determined from the ratio of releasate in agonist treated sample to the total amount present in detergent lysate; nonstimulated platelet supernatants were subtracted from both. Values expressed are the mean ±SEM of three experiments, each consisting of combined platelets from two donors.

[1] abbreviates: Inhibitor-Treated Platelets (antimycin A, 2-deoxy-D-glucose, D-gluconic acid δ-lactone).
Setting [2] is: Inhibitor-Treated Platelets, mean ±SEM.
Setting [3] is: Washed Platelets, 37° C., mean ±SEM of three experiments.

Consider Thrombin, for which the “fraction of total platelet PN-2/βAPP secreted on activation” value was “approximately one-half”. Under setting [1], this substance came in with a PN-2/βAPP percent secreted of 0%. Under setting [2], this substance yielded an ADP/ATP percent secreted of 0% and an LA-PF4 percent secreted of 0.4 ± 0.4%. This substance also came in with a PN-2/βAPP percent secreted under setting [3] of 53.7 ± 7.6%. In addition, under “Washed Platelets, mean ±SEM”, the ADP/ATP percent secreted was found to be 68 ± 11%; the LA-PF4 percent secreted is listed as 69 ± 6.2%; the “LDH loss (percent), marker of platelet lysis” value (“LDH loss (percent), marker” below) was 0%.
Consider Collagen, for which the “fraction of total platelet PN-2/βAPP secreted on activation” value is “approximately one-half”. The substance also had a PN-2/βAPP percent secreted under setting [1] of 0%. In addition, the “LDH loss (percent), marker” value (Inhibitor-Treated Platelets) was determined as 0%. Under setting [2], the ADP/ATP percent secreted is 1.3 ± 1.3% and the LA-PF4 percent secreted is given as 0%. Moreover, the PN-2/βAPP percent secreted under setting [3] is 46.3 ± 7.7%. In addition, for the setting “Washed Platelets, mean ±SEM”, the ADP/ATP percent secreted is given as 45 ± 16%; the LA-PF4 percent secreted is 52 ± 11%; the “LDH loss (percent), marker” value is listed as 1.3 ± 1.3%.
